Where two headings read alike, the source gives them in different places.
Tested on: HCV 1b genotype
Test: HCV replicon assay (HCV-neo replicon cells, wild-type)
Type: cell-based, Hepatitis C virus
Settings: HCV 1b genotype replicon
Procedure: An HCV Replicon assay was utilized in the present disclosure, and was prepared, conducted and validated as described in commonly owned PCT/US2006/022197 and in O'Boyle et al., Antimicrob. Agents Chemother, 49(4):1346-1353 (April 2005). Assay methods incorporating luciferase reporters have also been used as described (Apath.com).
HCV-neo replicon cells and replicon cells containing resistance substitutions in the NS5A region were used to test the currently described family of compounds.
The compounds were determined to have differing degrees of reduced inhibitory activity on cells containing mutations vs. the corresponding inhibitory potency against wild-type cells. Thus, the compounds of the present disclosure can be effective in inhibiting the function of the HCV NS5A protein and are understood to be as effective in combinations as previously described in application PCT/US2006/022197 and commonly owned WO 04/014852. It should be understood that the compounds of the present disclosure can inhibit multiple genotypes of HCV. […] In one embodiment, compounds of the present disclosure are inhibitory versus 1a, 1b, 2a, 2b, 3a, 4a, and 5a genotypes.

[1] = Hepatitis C virus, class symbol, read-out: EC50 Range against HCV 1b
[2] = class symbol, read-out: EC50 Range against HCV 1b
[3] = Hepatitis C virus, read-out: EC50 1b

SMILES | EC50 [1] [µM] | EC50 [2] [µM] | other results
CC1(C(=O)N2CCC[C@H]2C(=O)Nc2ccc(-c3cnc(-c4ccc(NC(=O)[C@@H]5CCCN5C(=O)C5(C)CCC(=O)N5Cc5ccccc5)cc4)o3)cc2)CCC(=O)N1Cc1ccccc1 (stereo partly drawn) [Example D-23, (2S,2′S)-N,N′-(1,3-oxazole-2,5-diyldi-4,1-phenylene)bis(1-((1-benzyl-2-methyl-5-oxo-2-pyrrolidinyl)carbonyl)-2-pyrrolidinecarboxamide)] | 1 to 10 | – | –
CC1(C(=O)N2CCC[C@H]2C(=O)Nc2ccc(-c3cnc(-c4ccc(NC(=O)[C@@H]5CCCN5C(=O)C5(C)CCC(=O)N5)cc4)o3)cc2)CCC(=O)N1 (stereo partly drawn) [Example D-24, (2S,2′S)-N,N′-(4,4′-(oxazole-2,5-diyl)bis(4,1-phenylene))bis(1-(2-methyl-5-oxopyrrolidine-2-carbonyl)pyrrolidine-2-carboxamide)] | – | 1 to 10 | EC50 (read-out: EC50 1b): 5.14 µM
CC1(C)CC(C)(C(=O)N2CCC[C@H]2C(=O)Nc2ccc(-c3cnc(-c4ccc(NC(=O)[C@@H]5CCCN5C(=O)C5(C)CC(C)(C)C(=O)N5)cc4)o3)cc2)NC1=O (stereo partly drawn) [Example D-25, (2S,2′S)-N,N′-(4,4′-(oxazole-2,5-diyl)bis(4,1-phenylene))bis(1-(2,4,4-trimethyl-5-oxopyrrolidine-2-carbonyl)pyrrolidine-2-carboxamide)] | – | 1 to 10 | EC50 (read-out: EC50 1b): 5.33 µM
O=C(Nc1ccc(-c2cnc(-c3ccc(NC(=O)[C@@H]4CCCN4C(=O)[C@@H]4C[C@@H]5C[C@@H]5N4C(=O)c4ccc(Cl)cc4Cl)cc3)o2)cc1)[C@@H]1CCCN1C(=O)[C@@H]1C[C@@H]2C[C@@H]2N1C(=O)c1ccc(Cl)cc1Cl [Example D-26, (S,S,S,2S,2′S)-N,N′-(4,4′-(oxazole-2,5-diyl)bis(4,1-phenylene))bis(1-((1S,3S,5S)-2-(2,4-dichlorobenzoyl)-2-azabicyclo[3.1.0]hexane-3-carbonyl)pyrrolidine-2-carboxamide)] | – | 1 to 10 | EC50 (read-out: EC50 1b): 3.33 µM
CC(C)(C)OC(=O)N1CCCC1C(=O)N1CCCC1C(=O)Nc1ccc(-c2cnc(-c3ccc(NC(=O)C4CCCN4C(=O)C4CCCN4C(=O)OC(C)(C)C)cc3)o2)cc1 [Example D-27, di-tert-butyl (2S,2′S)-2,2′-(1,3-oxazole-2,5-diylbis(4,1-phenylenecarbamoyl(2S)-2,1-pyrrolidinediylcarbonyl))di(1-pyrrolidinecarboxylate)] | – | 1 to 10 | –
CC(C)(C)OC(=O)N1CCCC1C(=O)N1CCCC1C(=O)Nc1ccc(-c2cnc(-c3ccc(NC(=O)C4CCCN4C(=O)C4CCCN4C(=O)OC(C)(C)C)cc3)o2)cc1 [Example D-28, di-tert-butyl (2R,2′R)-2,2′-(1,3-oxazole-2,5-diylbis(4,1-phenylenecarbamoyl(2S)-2,1-pyrrolidinediylcarbonyl))di(1-pyrrolidinecarboxylate)] | – | 1 to 10 | –
CC(C)(C)OC(=O)N1CCCC1(C)C(=O)N1CCC[C@H]1C(=O)Nc1ccc(-c2cnc(-c3ccc(NC(=O)[C@@H]4CCCN4C(=O)C4(C)CCCN4C(=O)OC(C)(C)C)cc3)o2)cc1 (stereo partly drawn) [Example D-29, di-tert-butyl 2,2′-(1,3-oxazole-2,5-diylbis(4,1-phenylenecarbamoyl(2S)-2,1-pyrrolidinediylcarbonyl))bis(2-methyl-1-pyrrolidinecarboxylate)] | – | 1 to 10 | –
CC(C)(C)OC(=O)N1CCCC1(C)C(=O)N1CCC[C@H]1C(=O)Nc1ccc(-c2cnc(-c3ccc(NC(=O)[C@@H]4CCCN4C(=O)C4(C)CCCN4C(=O)OC(C)(C)C)cc3)o2)cc1 (stereo partly drawn) [Example D-30, di-tert-butyl 2,2′-(1,3-oxazole-2,5-diylbis(4,1-phenylenecarbamoyl(2S)-2,1-pyrrolidinediylcarbonyl))bis(2-methyl-1-pyrrolidinecarboxylate)] | – | 1 to 10 | –
CC(C)(C)OC(=O)N1C(C(=O)N2CCCC2C(=O)Nc2ccc(-c3cnc(-c4ccc(NC(=O)C5CCCN5C(=O)C5CC6CC6N5C(=O)OC(C)(C)C)cc4)o3)cc2)CC2CC21 [Example D-31, di-tert-butyl (1S,3S,5S,1′S,3′S,5′S)-3,3′-(1,3-oxazole-2,5-diylbis(4,1-phenylenecarbamoyl(2S)-2,1-pyrrolidinediylcarbonyl))bis(2-azabicyclo[3.1.0]hexane-2-carboxylate)] | – | 1 to 10 | –
CC(C)(C)OC(=O)N1CCCC1(Cc1ccccc1)C(=O)N1CCC[C@H]1C(=O)Nc1ccc(-c2cnc(-c3ccc(NC(=O)[C@@H]4CCCN4C(=O)C4(Cc5ccccc5)CCCN4C(=O)OC(C)(C)C)cc3)o2)cc1 (stereo partly drawn) [Example D-32, di-tert-butyl 2,2′-(1,3-oxazole-2,5-diylbis(4,1-phenylenecarbamoyl(2S)-2,1-pyrrolidinediylcarbonyl))bis(2-benzyl-1-pyrrolidinecarboxylate)] | – | 1 to 10 | –
CC(C)(C)OC(=O)N1CCCC1(Cc1ccccc1)C(=O)N1CCC[C@H]1C(=O)Nc1ccc(-c2cnc(-c3ccc(NC(=O)[C@@H]4CCCN4C(=O)C4(Cc5ccccc5)CCCN4C(=O)OC(C)(C)C)cc3)o2)cc1 (stereo partly drawn) [Example D-33, di-tert-butyl 2,2′-(1,3-oxazole-2,5-diylbis(4,1-phenylenecarbamoyl(2S)-2,1-pyrrolidinediylcarbonyl))bis(2-benzyl-1-pyrrolidinecarboxylate)] | – | 1 to 10 | –
O=C(Nc1ccc(-c2cnc(-c3ccc(NC(=O)[C@@H]4CCCN4C(=O)[C@@H]4CCCN4)cc3)o2)cc1)[C@@H]1CCCN1C(=O)[C@@H]1CCCN1 [Example D-34, (2S,2′S)-N,N′-(1,3-oxazole-2,5-diyldi-4,1-phenylene)bis(1-((2S)-2-pyrrolidinylcarbonyl)-2-pyrrolidinecarboxamide)] | 1 to 10 | – | –
O=C(Nc1ccc(-c2cnc(-c3ccc(NC(=O)[C@@H]4CCCN4C(=O)[C@H]4CCCN4)cc3)o2)cc1)[C@@H]1CCCN1C(=O)[C@H]1CCCN1 [Example D-35, (2S,2′S)-N,N′-(1,3-oxazole-2,5-diyldi-4,1-phenylene)bis(1-((2R)-2-pyrrolidinylcarbonyl)-2-pyrrolidinecarboxamide)] | 1 to 10 | – | EC50 [3]: 5.24 µM
CC1(C(=O)N2CCC[C@H]2C(=O)Nc2ccc(-c3cnc(-c4ccc(NC(=O)[C@@H]5CCCN5C(=O)C5(C)CCCN5)cc4)o3)cc2)CCCN1 (stereo partly drawn) [Example D-36, (2S,2′S)-N,N′-(1,3-oxazole-2,5-diyldi-4,1-phenylene)bis(1-((2-methyl-2-pyrrolidinyl)carbonyl)-2-pyrrolidinecarboxamide)] | 1 to 10 | – | –
O=C(Nc1ccc(-c2cnc(-c3ccc(NC(=O)[C@@H]4CCCN4C(=O)C4(Cc5ccccc5)CCCN4)cc3)o2)cc1)[C@@H]1CCCN1C(=O)C1(Cc2ccccc2)CCCN1 (stereo partly drawn) [Example D-37, (2S,2′S)-N,N′-(1,3-oxazole-2,5-diyldi-4,1-phenylene)bis(1-((2-benzyl-2-pyrrolidinyl)carbonyl)-2-pyrrolidinecarboxamide)] | 1 to 10 | – | –
CN(C)[C@@H](C(=O)N1CCC[C@H]1C(=O)N1CCC[C@H]1C(=O)Nc1ccc(-c2cnc(-c3ccc(NC(=O)[C@@H]4CCCN4C(=O)[C@@H]4CCCN4C(=O)[C@@H](c4ccccc4)N(C)C)cc3)o2)cc1)c1ccccc1 [Example D-38, (2S,2′S)-N,N′-(1,3-oxazole-2,5-diyldi-4,1-phenylene)bis(1-(((2S)-1-((2R)-2-(dimethylamino)-2-phenylacetyl)-2-pyrrolidinyl)carbonyl)-2-pyrrolidinecarboxamide)] | 0.1 to 0.999 | – | EC50 [3]: 0.11 µM

— patent publication US8735398B2 (Bristol-Myers Squibb Company, priority 2009, dated 2014)
